The experiment has as its system human corpus cavernosum tissue. The note with it: doses of 10 μM and 30 μM; compared with equimolar dose of dipyridamole; tissue contracted with phenylephrine 7×10^−7 M; 0% = phenylephrine contraction, −100% = tone after papaverine 10^−4 M; FIG. 40.

Method: The tissue was maintained in a chilled Krebs-bicarbonate solution prior to assay. The tissue was cut into strips of 0.3×0.3×1 cm and suspended in organ chambers for isometric tension measurement. Tissues were incrementally stretched until optimal isometric tension for contraction was obtained. […] At the end of the experiment papaverine (10^−4 M) is added to obtain maximal relaxation. […] Data are expressed as the percent loss in tone from the phenylephrine-induced contraction (0% =phenylephrine contraction; −100%=tone after the administration of papaverine).

Consider `CC(C)(CC(=O)OCCN(CCOC(=O)CC(C)(C)SN=O)c1nc(N2CCCCC2)c2nc(N(CCOC(=O)CC(C)(C)SN=O)CCOC(=O)CC(C)(C)SN=O)nc(N3CCCCC3)c2n1)SN=O` [Example 1, 2.6-bis(diethyl(3-methyl-3(nitrosothiol)butyric acid ester)amino)-4.8-dipipendinopyrimido-[5,4d]-pyrimidine], for which the “relaxation of the phenylephrine-induced contraction (percent loss in tone from the phenylephrine-induced contraction)” value was “more efficacious”.
